# Assay: Solubility of ibuprofen in simulated salivary fluid (excess ibuprofen, sonication, centrifugation, HPLC)
# Format: physicochemical
# Conditions: fassgf or other biorelevant, thermodynamic from solid, simulated salivary fluid (19 mM phosphate buffer, 150 mM sodium chloride, pH 6.75), sonicated approximately 1 hour, centrifuged
# Description: In addition, solubility of ibuprofen was evaluated by adding an excess of ibuprofen to simulated salivary fluid and sonicating for approximately 1 hour. The solution was then centrifuged and injected onto the HPLC.
structure (smiles),measurement,value
"CC(C)Cc1ccc(C(C)C(=O)O)cc1 (stereo not shown) [ibuprofen, 2-(p-isobutylphenyl)propionic acid]",solubility,1800 µg/mL

# — patent US20130261188A1, “Ibuprofen Solid Oral Dosage Composition Comprising a Methacrylic Acid Copolymer” (TEIKOKU PHARMA USA, INC., priority 2012, published 2013)
